Data set [1] concerns the target T1, Trypanosoma cruzi ribose 5-phosphate isomerase B (TcRpiB) (Trypanosoma cruzi, UniProt Q4DBP9).
T1 construct: gene Tc00.1047053508601.119; recombinant N-terminal 6xHis-tagged TcRpiB (CL Brener Non-Esmeraldo-like) expressed in E. coli; 159 residues per monomer
As to the kind of experiment: enzyme kinetics (Km), direct spectrophotometric assay at […] nm. The format is biochemical.

In data set [2] the test system is O=C(CO)[C@H](O)[C@H](O)COP(=O)(O)O. The experiment in a line: purified protein.
The target of data set [3] is T1, Trypanosoma cruzi ribose 5-phosphate isomerase B (TcRpiB). The experiment in a line: spectrophotometric isomerase assay; Ki from Kmapp/Vmax plot; IC50 […]. The format is biochemical.
Data set [4] deals with T2, Trypanosoma brucei ribose 5-phosphate isomerase B (TbRpiB) (Trypanosoma brucei, UniProt Q384D1).
T2 construct: gene Tb11.01.0700; recombinant N-terminal 6xHis-tagged TbRpiB expressed in E. coli; 155 residues per monomer
T2 sequence (Q384D1 entry or part of it): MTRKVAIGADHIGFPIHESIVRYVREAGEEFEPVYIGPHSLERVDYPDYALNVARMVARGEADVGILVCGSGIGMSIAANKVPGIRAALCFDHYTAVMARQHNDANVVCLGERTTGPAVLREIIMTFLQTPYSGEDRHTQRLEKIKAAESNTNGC
As to the kind of experiment: spectrophotometric isomerase assay ([…] nm) and cysteine-carbazole assay; Ki from Kmapp/Vmax plot; IC50 […]. The data set is classed as biochemical.

T1 sequence (Q4DBP9 entry or part of it): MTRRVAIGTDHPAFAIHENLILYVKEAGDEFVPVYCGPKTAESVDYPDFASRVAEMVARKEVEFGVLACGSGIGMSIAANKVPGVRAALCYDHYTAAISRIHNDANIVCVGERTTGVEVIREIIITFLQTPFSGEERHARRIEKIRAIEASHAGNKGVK

Regarding `O=P(O)(O)OC[C@H]1OC(O)[C@H](O)[C@@H]1O` (stereo partly drawn) [R5P, D-ribose 5-phosphate], the “enzyme kinetics (Km), direct spectrophotometric assay at 290 nm” value in data set [1] was “enzymes have in vitro ribose 5-phosphate isomerase activity, as these proteins can use both R5P and Ru5P as substrates”.
As to “Trypanosoma brucei ribose 5-phosphate isomerase B (TbRpiB) (Trypanosoma brucei brucei TREU927)”, in data set [2], the Km amounted to 2390 ± 940 µM, the kcat came out at 39.4 ± 5.32 s⁻¹ and the kcat/Km amounted to 16400 M⁻¹ s⁻¹.
With `O=C(NO)[C@H](O)[C@H](O)COP(=O)(O)O` [4-PEH, 4-deoxy-4-phospho-D-erythronohydroxamic acid], the Ki in data set [3] turned out to be 1.6 mM; in data set [4] it was 2.2 mM.

The Km is the concentration of substrate that gives half-maximal velocity. By kcat is commonly meant the maximal rate divided by the concentration of active sites. Broadly, the kcat/Km is the second-order rate constant that governs catalysis at low substrate concentration. For orientation: Ki means the dissociation constant of the complex between target and ligand, obtained from inhibition or displacement. Low values mean tighter binding, high ones weaker binding.

The record behind these values is paper PMC4287489, “Ribose 5-Phosphate Isomerase B Knockdown Compromises Trypanosoma brucei Bloodstream Form Infectivity” (PLoS Neglected Tropical Diseases, 2015).
